Where two headings read alike, the source gives them in different places.
Columns and labels:
[1] = tested on: 60 cancer cell lines (NCI 60 cancer cell line series); experiment: NCI-DTP in vitro cancer screen, sulforhodamine B (SRB) growth inhibition, 48 hour exposure; type: cell-based, human; parameters: key to sensitivity class Ovarian OVCAR-8 CL6005 / sensitivity class Ovarian SK-OV-3 CL6011 / sensitivity class Prostate DU-145 CL11003 / sensitivity class NSCLC NCI-H522 CL1003 / sensitivity class Ovarian IGROV1 CL6010 / sensitivity class Ovarian OVCAR-4 CL6002 / sensitivity class Prostate PC-3(I) CL11001 / sensitivity class Renal A498 CL9013 / sensitivity class Renal SN12C CL9008: sensitivity class: 1 = Low, 2 = Medium, 3 = High
How it was run: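 Sixty NCI-DTP cancer lines plated at line-specific densities, dosed on day 1 in duplicate with 5 concentrations at ten-fold intervals. After 48 h exposure, cell mass read by SRB staining; GI50 (50% growth inhibition) taken from dose-response curves and expressed as -log GI50.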

[2] = tested on: 60 cancer cell lines (NCI 60 cancer cell line series); conditions: cited from earlier work

COc1cccc2c1C(=O)c1c(O)c3c(c(O)c1C2=O)C[C@@](O)(C(=O)CO)C[C@@H]3O[C@H]1C[C@H](N)[C@H](O)[C@H](C)O1 [Adriamycin]
6.3: -Log (GI50) ([2]; NSCLC NCI-H332M CL1017) | -Log (GI50) ([2]; Ovarian OVCAR-3 CL6001) | -Log (GI50) ([2]; Renal TK10 CL9024)
5.9: -Log (GI50) ([2]; Colon HCT-15 CL4015)
1: classification of cell line as Low(1), Medium(2) or High(3) sensitivity to compound ([1]; Colon HCT-15 CL4015) | sensitivity class NSCLC NCI-H332M CL1017 ([1]; cell line NSCLC NCI-H332M, CL1017) | sensitivity class Ovarian OVCAR-4 CL6002 ([1]; cell line Ovarian OVCAR-4, CL6002) | sensitivity class Ovarian OVCAR-5 CL6003 ([1]; cell line Ovarian OVCAR-5, CL6003) | sensitivity class Renal UO-31 CL9004 ([1]; cell line Renal UO-31, CL9004)
7.0: -Log (GI50) ([2]; Breast T-47D (CL5014)) | -Log (GI50) ([2]; CNS SF-268 CL12014) | -Log (GI50) ([2]; CNS SF-295 CL12015) | -Log (GI50) ([2]; CNS SNB-75(I) CL12005) | -Log (GI50) ([2]; Leukemia K562(I) CL7005) | -Log (GI50) ([2]; Renal SN12C CL9008)
2: classification of cell line as Low(1), Medium(2) or High(3) sensitivity to compound ([1]; CNS SF-539 CL12016) | classification of cell line as Low(1), Medium(2) or High(3) sensitivity to compound ([1]; CNS SNB-19 (CL12002)) | classification of cell line as Low(1), Medium(2) or High(3) sensitivity to compound ([1]; CNS SNB-75(I) CL12005) | classification of cell line as Low(1), Medium(2) or High(3) sensitivity to compound ([1]; CNS U251(I) CL12009) | classification of cell line as Low(1), Medium(2) or High(3) sensitivity to compound ([1]; Colon COLO-250 CL4010) | classification of cell line as Low(1), Medium(2) or High(3) sensitivity to compound ([1]; Colon HCC-2998 (CL4002)) | classification of cell line as Low(1), Medium(2) or High(3) sensitivity to compound ([1]; Colon HCT-116 (CL4003)) | classification of cell line as Low(1), Medium(2) or High(3) sensitivity to compound ([1]; Colon HT29(I) CL4001) | classification of cell line as Low(1), Medium(2) or High(3) sensitivity to compound ([1]; Colon KM12 (CL4017)) | classification of cell line as Low(1), Medium(2) or High(3) sensitivity to compound ([1]; Colon SW-620 (CL4009)) | classification of cell line as Low(1), Medium(2) or High(3) sensitivity to compound ([1]; Leukemia HL-60(I) (CL7008)) | classification of cell line as Low(1), Medium(2) or High(3) sensitivity to compound ([1]; Leukemia K562(I) CL7005) | classification of cell line as Low(1), Medium(2) or High(3) sensitivity to compound ([1]; Leukemia RPMI-8226(I) (CL7010)) | classification of cell line as Low(1), Medium(2) or High(3) sensitivity to compound ([1]; Melanoma LOX IMVI CL10001) | classification of cell line as Low(1), Medium(2) or High(3) sensitivity to compound ([1]; Melanoma M14 (CL10014)) | classification of cell line as Low(1), Medium(2) or High(3) sensitivity to compound ([1]; Melanoma MALME-3M CL10002) | sensitivity class NSCLC NCI-H23(I) CL1001 ([1]; cell line NSCLC NCI-H23(I), CL1001) | sensitivity class NSCLC NCI-H522 CL1003 ([1]; cell line NSCLC NCI-H522, CL1003) | sensitivity class Ovarian IGROV1 CL6010 ([1]; cell line Ovarian IGROV1, CL6010) | sensitivity class Ovarian OVCAR-3 CL6001 ([1]; cell line Ovarian OVCAR-3, CL6001) | sensitivity class Ovarian OVCAR-8 CL6005 ([1]; cell line Ovarian OVCAR-8, CL6005) | sensitivity class Ovarian SK-OV-3 CL6011 ([1]; cell line Ovarian SK-OV-3, CL6011) | sensitivity class Prostate DU-145 CL11003 ([1]; cell line Prostate DU-145, CL11003) | sensitivity class Prostate PC-3(I) CL11001 ([1]; cell line Prostate PC-3(I), CL11001) | sensitivity class Renal 786-O CL9018 ([1]; cell line Renal 786-O, CL9018) | sensitivity class Renal A498 CL9013 ([1]; cell line Renal A498, CL9013) | sensitivity class Renal ACHN CL9023 ([1]; cell line Renal ACHN, CL9023) | sensitivity class Renal CAKI-1 CL9015 ([1]; cell line Renal CAKI-1, CL9015) | sensitivity class Renal RXF-393 CL9016 ([1]; cell line Renal RXF-393, CL9016) | sensitivity class Renal SN12C CL9008 ([1]; cell line Renal SN12C, CL9008) | sensitivity class Renal TK10 CL9024 ([1]; cell line Renal TK10, CL9024)
7.8: -Log (GI50) ([2]; Breast MCF7(I) (CL5001)) | -Log (GI50) ([2]; Leukemia SR CL7019)
6.9: -Log (GI50) ([2]; NSCLC NCI-H23(I) CL1001) | -Log (GI50) ([2]; Ovarian IGROV1 CL6010) | -Log (GI50) ([2]; Renal A498 CL9013)
4.8: -Log (GI50) ([2]; Breast MCF7/ADRr (CL5002))
3: classification of cell line as Low(1), Medium(2) or High(3) sensitivity to compound ([1]; Leukemia CCRF-CEM(I) (CL7003)) | classification of cell line as Low(1), Medium(2) or High(3) sensitivity to compound ([1]; Leukemia MOLT-4 (CL7006)) | classification of cell line as Low(1), Medium(2) or High(3) sensitivity to compound ([1]; Leukemia SR CL7019) | sensitivity class NSCLC NCI-H460 CL1021 ([1]; cell line NSCLC NCI-H460, CL1021)
6.6: -Log (GI50) ([2]; Melanoma M14 (CL10014)) | -Log (GI50) ([2]; Prostate PC-3(I) CL11001)
7.5: -Log (GI50) ([2]; Leukemia CCRF-CEM(I) (CL7003))
6.8: -Log (GI50) ([2]; Ovarian OVCAR-8 CL6005) | -Log (GI50) ([2]; Prostate DU-145 CL11003) | -Log (GI50) ([2]; Renal CAKI-1 CL9015)
6.7: -Log (GI50) ([2]; Breast HS-578T CL5006) | -Log (GI50) ([2]; Colon COLO-250 CL4010) | -Log (GI50) ([2]; Colon HCC-2998 (CL4002)) | -Log (GI50) ([2]; Colon HT29(I) CL4001) | -Log (GI50) ([2]; Renal RXF-393 CL9016)
6.5: -Log (GI50) ([2]; Breast BT-549 (CL5013)) | -Log (GI50) ([2]; Breast MDA-MB-435 (CL5011)) | -Log (GI50) ([2]; Breast MDA-N CL5012) | -Log (GI50) ([2]; Colon KM12 (CL4017)) | -Log (GI50) ([2]; Ovarian SK-OV-3 CL6011)
7.2: -Log (GI50) ([2]; CNS SF-539 CL12016) | -Log (GI50) ([2]; NCSLC NCI-H522 CL1003) | -Log (GI50) ([2]; Renal ACHN CL9023)
8.0: -Log (GI50) ([2]; Leukemia MOLT-4 (CL7006))
7.1: -Log (GI50) ([2]; Colon HCT-116 (CL4003)) | -Log (GI50) ([2]; Colon SW-620 (CL4009)) | -Log (GI50) ([2]; Melanoma MALME-3M CL10002)
6.4: -Log (GI50) ([2]; Breast MDA-MB-231 CL5005)
7.3: -Log (GI50) ([2]; CNS SNB-19 (CL12002)) | -Log (GI50) ([2]; CNS U251(I) CL12009) | -Log (GI50) ([2]; Leukemia HL-60(I) (CL7008)) | -Log (GI50) ([2]; Leukemia RPMI-8226(I) (CL7010)) | -Log (GI50) ([2]; Melanoma LOX IMVI CL10001) | -Log (GI50) ([2]; Renal 786-O CL9018)
6.1: -Log (GI50) ([2]; Ovarian OVCAR-4 CL6002) | -Log (GI50) ([2]; Renal UO-31 CL9004)
6.2: -Log (GI50) ([2]; Ovarian OVCAR-5 CL6003)
8.2: -Log (GI50) ([2]; NSCLC NCI-H460 CL1021)
